# Source: ChEMBL document CHEMBL1156344, “New bisdesmosidic triterpene saponins from the roots of Pulsatilla chinensis” (J Nat Prod, 2001)
# Activity calls are given as the source filed them. The calls are words filed in the database; no cut-off is given here.
# Tested on: HL-60
# Experiment: Cytotoxicity against human HL60 cells at 10 ug/mL by MTT assay
# Type: functional, cell-based
row,SMILES,Activity
1,C[C@@H]1O[C@@H](O[C@H]2[C@H](O[C@H]3CC[C@@]4(C)[C@@H](CC[C@]5(C)[C@@H]4CC[C@@H]4[C@H]6[C@H](C(C)(C)O)CC[C@]6(C(=O)O[C@@H]6O[C@H](CO[C@@H]7O[C@H](CO)[C@@H](O[C@@H]8O[C@@H](C)[C@H](O)[C@@H](O)[C@H]8O)[C@H](O)[C@H]7O)[C@@H](O)[C@H](O)[C@H]6O)CC[C@]45C)[C@]3(C)CO)OC[C@H](O)[C@@H]2O)[C@H](O)[C@H](O)[C@H]1O,inactive
2,C=C(C)[C@@H]1CC[C@]2(C(=O)O[C@@H]3O[C@H](CO[C@@H]4O[C@H](CO)[C@@H](O[C@@H]5O[C@@H](C)[C@H](O)[C@@H](O)[C@H]5O)[C@H](O)[C@H]4O)[C@@H](O)[C@H](O)[C@H]3O)CC[C@]3(C)[C@H](CC[C@@H]4[C@@]5(C)CC[C@H](O[C@@H]6OC[C@H](O[C@@H]7O[C@H](CO)[C@@H](O)[C@H](O)[C@H]7O)[C@H](O)[C@H]6O[C@@H]6O[C@@H](C)[C@H](O)[C@@H](O)[C@H]6O)[C@@](C)(CO)[C@@H]5CC[C@]43C)[C@@H]12,inactive
3,C=C(C)[C@@H]1CC[C@]2(C(=O)O[C@@H]3O[C@H](CO[C@@H]4O[C@H](CO)[C@@H](O[C@@H]5O[C@@H](C)[C@H](O)[C@@H](O)[C@H]5O)[C@H](O)[C@H]4O)[C@@H](O)[C@H](O)[C@H]3O)CC[C@]3(C)[C@H](CC[C@@H]4[C@@]5(C)CC[C@H](O[C@@H]6OC[C@H](O)[C@H](O)[C@H]6O[C@@H]6O[C@@H](C)[C@H](O)[C@@H](O)[C@H]6O)[C@@](C)(CO)[C@@H]5CC[C@]43C)[C@@H]12,inactive
4,C=C(C)[C@@H]1CC[C@]2(C(=O)O[C@@H]3O[C@H](CO[C@@H]4O[C@H](CO)[C@@H](O[C@@H]5O[C@@H](C)[C@H](O)[C@@H](O)[C@H]5O)[C@H](O)[C@H]4O)[C@@H](O)[C@H](O)[C@H]3O)CC[C@]3(C)[C@H](CC[C@@H]4[C@@]5(C)CC[C@H](O[C@@H]6OC[C@H](O)[C@H](O)[C@H]6O)[C@@](C)(CO)[C@@H]5CC[C@]43C)[C@@H]12,inactive
5,C=C(C)[C@@H]1CC[C@]2(C(=O)O[C@@H]3O[C@H](CO[C@@H]4O[C@H](CO)[C@@H](O[C@@H]5O[C@@H](C)[C@H](O)[C@@H](O)[C@H]5O)[C@H](O)[C@H]4O)[C@@H](O)[C@H](O)[C@H]3O)CC[C@]3(C)[C@H](CC[C@@H]4[C@@]5(C)CC[C@H](O[C@@H]6OC[C@H](O[C@@H]7O[C@H](CO)[C@@H](O[C@@H]8O[C@H](CO)[C@@H](O)[C@H](O)[C@H]8O)[C@H](O)[C@H]7O)[C@H](O)[C@H]6O[C@@H]6O[C@@H](C)[C@H](O)[C@@H](O)[C@H]6O)[C@@](C)(CO)[C@@H]5CC[C@]43C)[C@@H]12,inactive
6,C=C(C)[C@@H]1CC[C@]2(C(=O)O[C@@H]3O[C@H](CO[C@@H]4O[C@H](CO)[C@@H](O[C@@H]5O[C@@H](C)[C@H](O)[C@@H](O)[C@H]5O)[C@H](O)[C@H]4O)[C@@H](O)[C@H](O)[C@H]3O)CC[C@]3(C)[C@H](CC[C@@H]4[C@@]5(C)CC[C@H](O[C@@H]6OC[C@H](O)[C@H](O)[C@H]6O[C@@H]6O[C@@H](C)[C@H](O)[C@@H](O)[C@H]6O)C(C)(C)[C@@H]5CC[C@]43C)[C@@H]12,inactive
7,C=C(C)[C@@H]1CC[C@]2(C(=O)O)CC[C@]3(C)[C@H](CC[C@@H]4[C@@]5(C)CC[C@H](O[C@@H]6OC[C@H](O)[C@H](O)[C@H]6O[C@@H]6O[C@@H](C)[C@H](O)[C@@H](O)[C@H]6O)[C@@](C)(CO)[C@@H]5CC[C@]43C)[C@@H]12,inactive
